Patent US11873486B2, “Modulating dsRNA editing, sensing, and metabolism to increase tumor immunity and improve the efficacy of cancer immunotherapy and/or modulators of intratumoral interferon” (Dana-Farber Cancer Institute, Inc., priority 2017, dated 2024)
“Also recorded” adds a separate entry of the source.

Experiments:
ADA2 = molecular target: T1, ADA2 (Homo sapiens, UniProt Q9NZK5); settings: cited from earlier work
T1 sequence (Q9NZK5 30-511): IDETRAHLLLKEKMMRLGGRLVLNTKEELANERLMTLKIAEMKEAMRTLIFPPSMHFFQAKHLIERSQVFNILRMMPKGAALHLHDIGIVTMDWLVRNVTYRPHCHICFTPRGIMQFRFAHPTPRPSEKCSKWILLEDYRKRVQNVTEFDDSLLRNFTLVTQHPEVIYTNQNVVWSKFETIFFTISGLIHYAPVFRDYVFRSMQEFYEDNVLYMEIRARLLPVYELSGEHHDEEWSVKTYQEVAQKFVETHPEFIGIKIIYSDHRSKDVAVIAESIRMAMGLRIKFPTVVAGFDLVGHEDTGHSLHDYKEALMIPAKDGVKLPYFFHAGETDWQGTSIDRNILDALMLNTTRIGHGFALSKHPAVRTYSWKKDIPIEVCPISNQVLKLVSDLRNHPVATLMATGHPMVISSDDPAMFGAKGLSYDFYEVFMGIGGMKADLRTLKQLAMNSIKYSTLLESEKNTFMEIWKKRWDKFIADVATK

[1] = system: interferon stimulated genes in ADAR-dependent cell lines; test: Immunoblot of interferon stimulated gene expression after inhibitor treatment; type: cell-based, human; settings: for ISG expression / interferon signaling: antioxidant treatment of ADAR-dependent cell lines
Experimental: (§1) For drug treatment assays, cells were plated at a density of 3000 cells per well in a 96-well assay plate. The following day, cells were treated with ruxolitinib (INCB018424) from Selleck Chemicals; MRT67307 hydrocloride (SML0702) from Sigma-Aldrich; human interferon-alphal (#8927) from Cell Signaling; recombinant human IFN-beta 1a (mammalian) protein (114151) and recombinant human IFN-gamma protein (285-IF-100) from R&D Systems. For preincubation drug treatment experiments, cells were plated in the presence of ruxolitinib and were treated with interferon-0 and ruxolitinib the following day. Control wells were treated with dimethylsulfoxide (DMSO). Cell viability was assayed 3 or 6 days after drug treatment with CellTiter-Glo® Luminescent Cell Viability Assay kit (Promega). Viability was normalized to DMSO controls.
Cells were lysed in RIPA lysis buffer (Thermo Scientific) supplemented with 1× protease and phosphatase inhibitor cocktails (Roche). Protein extracts were analyzed by standard immunoblotting with the following antibodies: ADAR1 (D7E2M), MDA5 (D74E4), RIG-I (D14G6), ISG15 (22D2), USP18 (D4E7), PKR (#3072), STING (D2P2F), cGAS (D1D3G), IRF9 (D2T8M), PD-L1 (E1L3N), P-IRF3 Ser396 (4D4G), IRF3 (D6I4C), P-TBK1 Ser172 (D52C2), TBK1 (D1B4), P-EIF2α Ser51 (#9721), and EIF2α (D7D3) from Cell Signaling; P-PKR Thr446 (ab32036) from Abcam; R-actin C4 (sc-47778) from Santa Cruz. All antibodies were used at a dilution of 1:1000 except R-actin which was used at 1:4000). The following secondary antibodies were used at 1:5000 dilution: Goat anti-Rabbit IRDye 800CW (LI-COR, 926-32211) and Goat anti-Mouse IRDye […] (LI-COR, 926-68020). All immunoblots were imaged using the LI-COR digital imaging system and ImageJ.

[2] = system: ADAR1 knockout A549 cells; test: Viability of ADAR1 knockout A549 cells with interferon or drug treatment; type: cell-based, human
Experimental: as §1
for interferon treatment assays, cells were plated at a low density of 3000 cells per well in a 96-well assay plate. The following day, cells were treated with human interferon-alpha 1 (Cell Signaling, #8927) or recombinant human IFN-beta 1a (mammalian) protein (PBL Assay Science, 114151). Control wells were treated with water. Cell viability was assayed 3 or 6 days after drug treatment with CellTiter-Glo© Luminescent Cell Viability Assay kit (Promega). Viability was normalized to controls. Apoptosis was assayed 3 days after interferon treatment with Caspase-Glo®3/7 Assay kit (Promega). Dose curves were obtained using least-squares nonlinear regression on a standard four-parameter logistic model using GraphPad Prism.

B16 tumors = test: B16 tumor challenge (tumor volume, survival); type: in vivo, mouse; settings: topical, every three days
Text: The designs of these animal studies and procedures were approved by the Dana Farber Cancer Institute IACUC committee. Dana Farber's specific-pathogen free facility was used for the storage and care of all mice. Seven-week old wild-type female C57BL/6J mice were obtained from Jackson laboratories (Bar Harbor, ME). A colony of B6.129S2-Tcra^tm1Mom/J (Tcra) T cell-deficient mice were bred on site. Mice were aged matched to be 7-12 weeks old at the time of tumor inoculation. For screening, 2.0×10^6 library-transduced B16-Cas9 cells resuspended in Hanks Balanced Salt Solution (Gibco, Thermo Fisher Scientific, Waltham, MA) were mixed 1:1 by volume with Matrigel® (Corning, Corning, NY) and subcutaneously injected into the right flank on day 0. Mice were vaccinated with 1.0×10^6 GM-CSF-secreting B16 (GVAX) cells that had been irradiated with […] on days 1 and 4 to elicit an anti-tumor immune response. Subsequently, mice were treated with 100 μg of rat monoclonal anti-PD1 antibody (clone: 29F.1A12) on days 9 and 12 via intraperitoneal injection. For validation assays, 1.0×10^6 tumor cells were subcutaneously injected into the right flank without matrigel. Tumors were measured every 3 days beginning on day 6 after challenge until time of death. Measurements were taken manually by collecting the longest dimension (length) and the longest perpendicular dimension (width). Tumor volume was estimated with the formula: (L×W^2)/2. CO2 inhalation was used to euthanize mice on the day of sacrifice.
The designs of animal studies and procedures were approved by the Dana Farber Cancer Institute IACUC and the Broad Institute IACUC committees. Specific pathogen-free facilities at the Dana Farber and the Broad Institute were used for the storage and care of all mice. Six-week old wild-type female C57BL/6J mice were obtained from Jackson laboratories, Bar Harbor ME A colony of B6.129S2-Tcra^tm1Mom/J (Tcra) T cell-deficient mice were bred on site at the Dana Farber. […] Tumors were measured every 3 days beginning on day 6 after challenge until time of death. […]

ADA1 = molecular target: T2, ADA1 (Homo sapiens, UniProt P00813); settings: cited from earlier work
T2 sequence (P00813 1-363): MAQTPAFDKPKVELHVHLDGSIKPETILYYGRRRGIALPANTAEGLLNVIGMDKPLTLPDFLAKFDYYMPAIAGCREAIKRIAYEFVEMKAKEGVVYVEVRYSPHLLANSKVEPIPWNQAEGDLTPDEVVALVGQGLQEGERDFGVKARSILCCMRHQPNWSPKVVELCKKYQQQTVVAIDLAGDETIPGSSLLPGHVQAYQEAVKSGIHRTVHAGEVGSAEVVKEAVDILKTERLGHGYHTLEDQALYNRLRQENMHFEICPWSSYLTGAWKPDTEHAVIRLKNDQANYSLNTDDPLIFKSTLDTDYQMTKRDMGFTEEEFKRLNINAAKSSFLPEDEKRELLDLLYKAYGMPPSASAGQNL

B16 tumor cells = test: In vitro cytokine stimulation and growth inhibition assay; type: cell-based, mouse; settings: Adar-deficient versus control B16 tumor cells, 72 hours
Experimental: FIG. 9 includes 3 panels, identified as panels A, B, and C, which provide exemplary mechanisms of ADAR-induced sensitivity to checkpoint blockade. […] A certain number of B16 tumor cells (50 k; Adar null or control) were stimulated in vitro with cytokine for 72 hours and the cell numbers were then counted. […] A certain number of B16 tumor cells (50 k; Adar null or control) were stimulated with cytokine in vitro, washed to remove cytokine (for IFNβ), and evaluated via IFNβ ELISA. […] A certain number of B16 tumor cells (50 k; Adar null or control) were stimulated in vitro with cytokine for 72 hours and stained for Class I MHC and PD-L1.
Tumor cells were engineered as noted above and plated in DMEM+10% FBS containing the indicated combinations of cytokines: IFN (1,000 U/ml, PBL), IFN (100 ng/ml, Cell Signaling Technologies), TNF (10 ng/ml, PreproTech). For rescue/re-expression experiments, 10,000 cells were plated in 96-well plates and viable cells were enumerated after 72 hours using Cell Titer-Glo® (Promega, G7570). For all other growth inhibition assays, 50,000 cells were plated in 12-well plates and viable cells were counted after 72 hours using the Countess automated cell counting system (Thermo Fisher Scientific, C10227).

[3] = animals bearing Adar1 null B16 tumors

In the case of `Nc1ccnc2c1ncn2[C@@H]1O[C@H](CO)[C@@H](O)[C@H]1O` [1-deazaadenosine], the “inhibition of ADA2” value (ADA2) is listed as “can inhibit both ADA1 and ADA2”.

In the case of `c1ccc2c(c1)[I+]c1ccccc1-2` [DPI, diphenylene iodonium], the “ISG expression / interferon signaling” value [1] is reported as “partially decreased ISG expression” and the “ISG expression / interferon signaling” value ([1]; listed as diphenylene iodonium (DPI)) is reported as “partially alleviates interferon signaling”.

With `Cl.O=C(NCCCNc1nc(Nc2cccc(CN3CCOCC3)c2)ncc1C1CC1)C1CCC1` [MRT67307, MRT67307 hydrocloride] the ISG expression ([1]; TBK1 inhibitor treatment) was “reduced”.

For `COc1cccc2c1C(=O)c1c(O)c3c(c(O)c1C2=O)C[C@@](O)(C(=O)CO)C[C@@H]3O[C@H]1C[C@H](N)[C@H](O)[C@H](C)O1` [doxorubicin], the “sensitization to ADAR1 knockout” value [2] was “failed to sensitize A549 cells to ADAR1 knockout”.

For `CC(C)Cn1cnc2c(N)nc3ccccc3c21` [imiquimod], the survival (B16 tumors; [3]) was “enhanced survival”, the tumor growth (B16 tumors; [3]) was “significantly slowed tumor growth” and the survival (B16 tumors; animals bearing control B16 tumors) was “nor topical therapy with imiquimod, a TLR7 agonist, increased the survival”.

In the case of `C[C@@H]1O[C@@H](O[C@H]2[C@H](Oc3cc(O)c4c(c3)O[C@H](c3ccc(O)cc3)CC4=O)O[C@H](CO)[C@@H](O)[C@@H]2O)[C@H](O)[C@H](O)[C@H]1O` [naringin], the “inhibition of ADA1” value (ADA1) is given as “potent ADA1 inhibitor”.

For `OC[C@H]1O[C@@H](n2cnc3c2NC=NC[C@H]3O)C[C@@H]1O` [pentostatin], the “inhibition of ADA2” value (ADA2) is given as “can inhibit both ADA1 and ADA2”.

With IFNγ the cytokine-induced growth arrest (B16 tumor cells) was “increases IFNβ and IFNγ-induced growth arrest; also recorded: increases susceptibility to IFNβ and IFNγ”.

For “Type II interferon: recombinant human IFN-gamma protein (R&D Systems)”, the “sensitization to ADAR1 knockout” value [2] was “did not sensitize A549 cells to ADAR1 knockout”.

In the case of “erythro-9-(2-hydroxy-3-nonyl)adenine [EHNA]”, the “inhibition of ADA1” value (ADA1) is given as “specifically inhibits ADA1”.
